Data set [1] is filed under the species Homo sapiens. As to the kind of experiment: Inhibition of amyloid beta (unknown origin) assessed as decrease in amyloid beta monomers.
Data set [2] deals with T1, Amyloid-beta precursor protein (Homo sapiens, UniProt P05067). As to the kind of experiment: Binding affinity to human amyloid beta (1 to 42) oligomer measured by fluorescence assay.
In data set [3] the target is T1, Amyloid-beta precursor protein. The experiment in a line: Binding affinity to human amyloid beta (1 to 40) aggregates measured by fluorescence assay.
Data set [4] has the same target. The experiment in a line: Binding affinity to human amyloid beta (1 to 40) monomer measured by fluorescence assay.
A short description of data set [5]: Drug uptake in brain of Tg mouse at 2 mins post injection. The note with it: read-out: Drug uptake. Type of data set: ADME, tissue-based.
A short description of data set [6]: Binding affinity to amyloid beta (unknown origin) oligomer. Further details: species or system Homo sapiens.
Data set [7] is described as follows: Binding affinity to amyloid beta (unknown origin) monomer. Also noted: species or system Homo sapiens.
A short description of data set [8]: Binding affinity to amyloid beta (unknown origin) aggregates. Further details: species or system Homo sapiens.
For data set [9], the target named is T1, Amyloid-beta precursor protein. As to the kind of experiment: Displacement of [125I]IMPY from amyloid beta (1 to 40) (unknown origin) measured by competitive radioligand binding assay. For orientation: Loss of bound radioactivity is the signal in a displacement assay; it reports binding, not function.
Data set [10] has the same target. As to the kind of experiment: Displacement of [125I]IMPY from amyloid beta (1 to 42) (unknown origin) measured by competitive radioligand binding assay.
The species entered for data set [11] is Homo sapiens. The experiment in a line: Inhibition of amyloid beta (unknown origin) measured by ThT-based fluorimetric assay. The note with it: concentration not given here.
Data set [12] in a line: Lipophilicity, logP of compound. Type of data set: physicochemical. The note with it: octanol/water.
The nature of data set [13]: Inhibition of amyloid beta (unknown origin) self-induced aggregation. Also noted: species or system Homo sapiens.
Data set [14] in a line: Binding affinity to insoluble amyloid beta (unknown origin). Also noted: species or system Homo sapiens.
Data set [15] can be described thus: Binding affinity to soluble amyloid beta (unknown origin). Further details: species or system Homo sapiens.
The target of data set [16] is T1, Amyloid-beta precursor protein. The experiment in a line: Binding affinity to amyloid beta (1 to 40) (unknown origin) aggregates.
Data set [17] shares this target. The experiment in a line: Binding affinity to amyloid beta (1 to 40) (unknown origin) fibrils.
Data set [18] in a line: Binding affinity to tau protein (unknown origin). Also noted: species or system Homo sapiens.
The nature of data set [19]: Binding affinity to mouse brain amyloid beta plaques.
The target in data set [20] is T1, Amyloid-beta precursor protein. As to the kind of experiment: Binding affinity to human amyloid beta (1 to 42) monomer measured by fluorescence assay.
For data set [21] the target is unchanged. As to the kind of experiment: Binding affinity to human amyloid beta (1 to 42) aggregates measured by fluorescence assay.
Data set [22] has the same target. As to the kind of experiment: Binding affinity to human amyloid beta (1 to 42) aggregates measured by fluorescence polarization assay. A general note: Fluorescence polarisation rises when a labelled molecule tumbles more slowly, as on binding a larger partner.
Data set [23] deals with Albumin (Bos taurus, UniProt P02769). The experiment in a line: Binding affinity to bovine serum albumin.
The target in data set [24] is T1, Amyloid-beta precursor protein. As to the kind of experiment: Binding affinity to human amyloid beta (1 to 42) monomer measured by fluorescence polarization assay.
The target is the same in data set [25]. The experiment in a line: Binding affinity to human amyloid beta (1 to 42) oligomer measured by fluorescence polarization assay.

The values that follow come from ChEMBL document CHEMBL5137055, “Near-Infrared Fluorescent Probes as Imaging and Theranostic Modalities for Amyloid-Beta and Tau Aggregates in Alzheimer's Disease” (J Med Chem, 2022).

SMILES strings stand for the structures.

T1 sequence (P05067 whole entry): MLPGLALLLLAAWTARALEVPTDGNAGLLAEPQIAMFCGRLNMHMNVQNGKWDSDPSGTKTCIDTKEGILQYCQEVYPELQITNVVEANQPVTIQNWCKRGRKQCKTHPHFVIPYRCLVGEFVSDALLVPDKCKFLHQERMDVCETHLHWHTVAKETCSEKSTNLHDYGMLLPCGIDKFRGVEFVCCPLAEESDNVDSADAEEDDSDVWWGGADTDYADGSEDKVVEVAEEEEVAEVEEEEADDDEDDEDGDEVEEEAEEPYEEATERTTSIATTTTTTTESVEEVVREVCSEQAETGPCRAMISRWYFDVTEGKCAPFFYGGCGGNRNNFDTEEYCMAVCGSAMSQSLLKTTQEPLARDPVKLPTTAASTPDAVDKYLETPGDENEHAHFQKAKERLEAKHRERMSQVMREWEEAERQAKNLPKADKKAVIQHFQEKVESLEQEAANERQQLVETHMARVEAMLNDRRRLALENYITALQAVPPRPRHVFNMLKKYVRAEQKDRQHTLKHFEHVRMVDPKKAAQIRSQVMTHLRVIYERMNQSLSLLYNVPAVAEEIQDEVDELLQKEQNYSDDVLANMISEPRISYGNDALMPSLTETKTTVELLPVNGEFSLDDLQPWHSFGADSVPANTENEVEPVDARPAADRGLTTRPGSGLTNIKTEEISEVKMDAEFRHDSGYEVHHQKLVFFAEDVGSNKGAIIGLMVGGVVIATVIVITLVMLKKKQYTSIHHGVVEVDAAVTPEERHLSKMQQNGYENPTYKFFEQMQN
Chain of Albumin (P02769 whole entry): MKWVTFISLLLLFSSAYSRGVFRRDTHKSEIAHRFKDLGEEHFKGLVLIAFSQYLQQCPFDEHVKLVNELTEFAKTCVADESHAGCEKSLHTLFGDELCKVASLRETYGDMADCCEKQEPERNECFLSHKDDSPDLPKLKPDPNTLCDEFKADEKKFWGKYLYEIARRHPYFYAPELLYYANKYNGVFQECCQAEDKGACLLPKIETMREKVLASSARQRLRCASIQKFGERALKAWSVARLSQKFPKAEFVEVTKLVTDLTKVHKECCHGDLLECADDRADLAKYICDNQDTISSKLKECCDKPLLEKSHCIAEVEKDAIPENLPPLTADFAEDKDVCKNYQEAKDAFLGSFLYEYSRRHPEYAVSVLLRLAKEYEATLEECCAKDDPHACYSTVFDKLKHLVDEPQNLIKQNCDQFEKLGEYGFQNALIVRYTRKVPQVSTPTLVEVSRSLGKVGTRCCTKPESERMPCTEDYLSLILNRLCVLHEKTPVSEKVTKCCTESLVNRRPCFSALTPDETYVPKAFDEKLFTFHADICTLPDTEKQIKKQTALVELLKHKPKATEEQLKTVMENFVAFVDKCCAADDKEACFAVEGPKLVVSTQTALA

In the case of `Nc1c(/N=N/c2ccc(-c3ccc(/N=N/c4cc(S(=O)(=O)O)c5ccccc5c4N)cc3)cc2)cc(S(=O)(=O)O)c2ccccc12`, in [1], the ID50 was found to be 3400 nM.

In the case of `Cc1c(/C=C/C2=CC(/C=C/c3cnn(-c4ccccc4)c3C)=[O+][B-](F)(F)O2)cnn1-c1ccccc1`, the results for the Kd in [2], in data set [3] and in [4] were 68.8 nM, 52.4 nM and 85.7 nM, respectively.

With `O=C1NC(=S)NC(=O)C1=C/C=C/C=C/C1C(=O)NC(=S)NC1O` (stereo unspecified), the tissue uptake at 2 min in data set [5] is 0.04 %ID/g.

`CC1=CC(C)=[N+]2C1=C(CCCN1CCNc3ccccc31)c1c(C)cc(/C=C/c3ccc(N(C)C)s3)n1[B-]2(F)F`: the Kd in [6] came out at 27 nM; in data set [7], 6 nM; in data set [8] it was 18 nM.

For the compound `CN1C(=O)C(=C/C=C/C=C/c2ccc(N(C)C)cc2)C(=O)N(C)C1=O`, the affinity in [9], expressed as Kd, was 23.9 nM. In [10], this compound registered a Ki of 13.7 nM. The tissue uptake at 2 min in data set [5] was determined as 0.83 %ID/g.

In turn, `Cc1ccc2nc(/C=C/c3ccc(N)cc3)ccc2c1` came in with an inhibition in data set [11] of 73%.

Consider `CCOC(=O)CN1C(=O)/C(=C/c2ccc3c(c2)Sc2ccccc2N3C)SC1=S`, for which the affinity in data set [8], expressed as Kd, was 7.5 nM. In [12], this compound showed a logP of 3.68. In data set [13], this compound showed an IC50 of 670 nM.

With `CCN(CC)c1ccc(/C=C/C2=[O+][B-](F)(F)OC(/C=C/c3ccc(N(CC)CC)nc3)=C2CCCOc2c(C)cccc2C)cn1`, the dissociation constant Kd in data set [14] is 506 nM; in [15] it was 7.5 nM.

For the compound `CCCC[N+]1=C(/C=C/c2ccc(N(CC)CC)cc2)C(C)(C)c2ccccc21`, the Ki in data set [16] is 1.37 nM. The compound also gave a Kd in [17] of 930 nM. In [18], this compound registered an IC50 of 1.41 nM.

On to `CCOC(=O)CN1C(=O)S/C(=C\C=C\c2ccc3c(c2)Sc2ccccc2N3C)C1=O`, for which, in data set [8], the affinity, expressed as Kd, was 10.3 nM. Besides, in data set [12], the logP turned out to be 3.6. Further, it took 1800 nM to reach half-maximal inhibition in data set [13] (IC50).

`CN(C)c1ccc(/C=C/C2=[O+][B-](F)(F)OC(/C=C/c3ccc(OCCOCCF)cc3)=C2)cc1` yielded a Kd in data set [19] of 19.7 nM.

On to `CCN(CC)c1ccc(/C=C/C2=CC(/C=C/c3ccc(N(CC)CC)nc3)=[O+][B-](F)(F)O2)cn1`, for which the Kd stood at 24 nM in data set [20], 27 nM in data set [21] and 16 nM in [2].

In the case of `COc1cc(/C=C/C(=O)/C(Cc2cn(CCCCCCNC(=O)CCNC(=O)CCNC(=O)CO[C@H]3CC[C@@]4(C)C(=CC[C@H]5[C@@H]6CC[C@H]([C@@H](C)CCCC(C)C)[C@@]6(C)CC[C@@H]54)C3)nn2)=C(O)/C=C/c2ccc(O)c(OC)c2)ccc1O`, the Kd in [22] was 830 nM; in [23], 71000 nM; in data set [24], 2030 nM; in data set [25], 2170 nM.

The term Kd denotes the equilibrium constant for the complex coming apart. The low end stands for a tighter complex, the high end for a looser complex. In general, Ki refers to a measure of affinity in units of concentration, obtained from inhibition or displacement. Read a low Ki as higher affinity. As usually defined, the inhibition is the percentage by which the read-out fell short of the control. In general, logP refers to a log measure of how a compound divides between an organic and an aqueous phase. Read a low logP as lower lipophilicity. The IC50 is the concentration at which inhibition is half-maximal. Higher therefore signals weaker potency.
